{"source": "patent US20190038674A1", "about": "“Formulation for the Treatment of Diabetes” (priority 2013, published 2019)", "assay_type_in_all_cases": "in vivo, Wistar Albino rat", "key": {"[1]": {"test_system": "streptozotocin treated diabetic rats", "assay": "Fasting blood glucose in streptozotocin induced diabetic rats, 15 days of treatment", "conditions": "for Blood glucose on 15th day: Glyclazide 1.44 mg/200 g body weight, single oral dose daily, day 1 to 15; for Blood glucose on 1st day: before treatment, group later given Glyclazide 1.44 mg/200 g body weight oral daily", "procedure": "Albino Wistar rats of both sex (male and female) were procured from the laboratory of Columbia Institute of Pharmacy Tekari, Raipur 493111 (C.G.), India, and were maintained under a 12 h light/dark cycle and allowed for feed and water without limit. Approved experimental protocol in accordance with the guidelines provided by the committee for the control and supervision of experiments on animals (CPCSEA). The experimental rats were registered by CPCSEA and registration number was 1321/ac/10/CPCSEA.\nA. Species: Wistar Albino rat\n(§1) Diabetes was induced in rats by the intra peritoneal injection of streptozotocin (Himedia) at a dose of 50 mg/kg body weight dissolved in citrate buffer (0.1 M, pH 4.5) in the volume of 1 ml/kg. The diabetic rats were given 5% w/v glucose solution orally in order to prevent hypoglycemia during the first day after the streptozotocin administration. Three days after the injection (six group), the blood glucose levels were measured and the animals with blood glucose levels above 300 mg/dl were considered as being diabetic and were used in the subsequent experiments. In all the experiments, rats were fasted for 16 hr prior to streptozotocin injection. • a. Total units=202.5 • b. 1 ml=40 units, 0.1 ml=4 units • c. Therefore total units 202.5/40 units=5.06 ml of streptozotocin solution • d. Freshly prepared streptozotocin solution (5.06 ml of solution/36 rats according to body weight) fed as a single dose only once to induce diabetes.\n(§2) Experimental rats were divided in 4 groups of 6 rats per group and 4th group further divided in 4 groups with 6 rats in each sub group. The details of treatments were given below:\nc. Group 3—Standard drug group—Diabetic animals received daily a single oral dose of the reference drug Glyclazide 1.44 mg/200 g body weight from day 1 to 15. […]\n(§3) Blood samples were collected retro-orbitally from the inner canthus of the eye under light ether anesthesia using capillary tubes (Micro Hemocrit Capillariea, Mucaps) as described by Sorg and Buckner (1964); Blood was transferred into fresh vials and serum was separated by centrifuging at 2000 rpm for 2 min. Blood glucose levels were measured using Accu-Check glucose kit.\n(§4) To observe the effect of administration of cow urine powder SMP blends and standard drug glyclazide diabetic rats was determined by measuring the fasting blood glucose levels and serum lipid profiles.\n(§5) Day 3 of induction was designed as day 1 for administration of the standard drug glyclazide and cow urine SMP blends to diabetic rats, fasting blood glucose levels measured on days 1, 5, 10 and 15 of the experiment period. Other parameters were determined on after day 15 and residual study was carried out for another 15 days to observe the reappearance diabetes.\n(§6) Blood glucose was measured by using Accu-Check Active Glucometer (Roche) and the result was expressed as milligram per deciliter (mg/dl). This instrument is working on the principle of photometry."}, "[2]": {"test_system": "streptozotocin treated diabetic rats", "assay": "Serum lipid profile (cholesterol, LDL, HDL, triglyceride) in streptozotocin treated diabetic rats", "conditions": "for Lipid profile Cholesterol / Lipid profile HDL / Lipid profile LDL / Lipid profile Triglyceride: after 15th day, Glyclazide 1.44 mg/200 g body weight daily", "procedure": "as §1, §2, §3, §4, §5\nThe serum lipid profile parameters such as cholesterol, HDL, LDL and triglycerides content were studied by using blood serum obtained during the experiments.\nCholesterol content in the blood samples were analyzed by using Bio Chemistry\nAnalyzer which is working on the principle of Lambert's-Beer's law.\nFor estimation of triglycerides, Bio-chemistry Analyzer was used."}, "[3]": {"test_system": "streptozotocin treated diabetic rats", "assay": "Residual effect on blood glucose levels of diabetic rats during 15-day residual period after treatment", "conditions": "residual period after withdrawal, Glyclazide 1.44 mg/200 g", "procedure": "as §5, §6\nResidual effect of standard drug glyclazide group, skim milk powder group and cow urine powder SMP blends groups (100, 200 and 400 mg) for residual of blood glucose levels in streptozotocin treated rats for 15 days and observations were recorded."}, "[4]": {"conditions": "starting value, Glyclazide group"}}, "note": "“And” between values parts separate entries of the source, which are not always exact repeats. Identical values can stand only once."}
{"smiles": "Cc1ccc(S(=O)(=O)NC(=O)NN2CC3CCCC3C2)cc1", "note": "(centres unmarked) [Standard Glyclazide, Glyclazide]", "values": [{"measurement": "Blood glucose on 15th day", "setting": "[1]", "result": "125.25 ± 12.33", "unit": "mg/dL"}, {"measurement": "Blood glucose on 15th day", "setting": "[1]; listed as glyclazide", "result": "125.25 mg/dL and 125.2 mg/dL"}, {"measurement": "Blood glucose on 1st day", "setting": "[1]", "result": "599.16 ± 57.10", "unit": "mg/dL"}, {"measurement": "Blood glucose on 1st day", "setting": "[1]; listed as glyclazide", "result": 599.1, "unit": "mg/dL"}, {"measurement": "percent reduce of blood glucose on 15th day", "setting": "[1]; vs 1st day, Glyclazide 1.44 mg/200 g body weight daily", "result": "(79.09%)"}, {"measurement": "Lipid profile Cholesterol", "setting": "[2]", "result": "67.72 ± 3.37", "unit": "mg/dL"}, {"measurement": "Lipid profile HDL", "setting": "[2]", "result": "51.55 ± 1.91", "unit": "mg/dL"}, {"measurement": "Lipid profile LDL", "setting": "[2]", "result": "16.17 ± 5.25", "unit": "mg/dL"}, {"measurement": "Lipid profile Triglyceride", "setting": "[2]", "result": "95.35 ± 3.10", "unit": "mg/dL"}, {"measurement": "Lipid profile Cholesterol", "setting": "[2]; listed as glyclazide", "result": 67.72, "unit": "mg/dL"}, {"measurement": "Lipid profile HDL", "setting": "[2]; listed as glyclazide", "result": 51.55, "unit": "mg/dL"}, {"measurement": "Lipid profile LDL", "setting": "[2]; listed as glyclazide", "result": 16.17, "unit": "mg/dL"}, {"measurement": "Lipid profile Triglyceride", "setting": "[2]; listed as glyclazide", "result": 95.35, "unit": "mg/dL"}, {"measurement": "blood HDL level before treatment (increased from)", "setting": "[2]; [4]", "result": 41.75, "unit": "mg/dL"}, {"measurement": "blood LDL level before treatment (reduced from)", "setting": "[2]; [4]", "result": 83.73, "unit": "mg/dL"}, {"measurement": "blood cholesterol level before treatment (reduced from)", "setting": "[2]; [4]", "result": 125.44, "unit": "mg/dL"}, {"measurement": "triglyceride level before treatment (reduced from)", "setting": "[2]; [4]", "result": 187.96, "unit": "mg/dL"}, {"measurement": "Blood glucose level 20th Day", "setting": "[3]", "result": "176.50 ± 29.75", "unit": "mg/dL"}, {"measurement": "Blood glucose level 25th Day", "setting": "[3]", "result": "174.76 ± 27.42", "unit": "mg/dL"}, {"measurement": "Blood glucose level 30th Day", "setting": "[3]", "result": "201.57 ± 29.85", "unit": "mg/dL"}, {"measurement": "Blood glucose level 20th Day", "setting": "[3]; listed as glyclazide", "result": 176.50, "unit": "mg/dL"}, {"measurement": "Blood glucose level 25th Day", "setting": "[3]; listed as glyclazide", "result": 174.76, "unit": "mg/dL"}, {"measurement": "Blood glucose level 30th Day", "setting": "[3]; listed as glyclazide", "result": 201.57, "unit": "mg/dL"}]}
